Reference: article PMC11954145, “Antimicrobial and ADME properties of methoxylated, methylated and nitrated 2-hydroxynaphthalene-1 carboxanilides” (ADMET & DMPK, 2025)
Values after ≈ are worked out from the molar mass of the structure shown. Values joined by “and” are separate entries in the source; they are usually repeats but may differ in a detail not shown here. Identical values can stand only once. Like-named read-outs stand apart in the source and are kept apart here.

What was measured:
[1] = Lipophilicity determination by RP-HPLC (log k, log D); format: physicochemical; conditions: for log D6.5: RP-HPLC C18, MeOH 72 % / acetate-buffered saline pH 6.5; for log D7.4: RP-HPLC C18, MeOH 72 % / acetate-buffered saline pH 7.4; for log k (logarithm of the capacity factor): RP-HPLC C18, MeOH 72 % / water 28 %
Text: An HPLC system Agilent 1200 equipped with a DAD detector (Agilent, Santa Clara, CA, USA) was used. A chromatographic column Symmetry® C18 5 μm, 4.6×250 mm, part No. WAT054275 (Waters Corp., Milford, MA, USA) was used. The HPLC separation process was monitored and evaluated with EZChrom Elite software ver. 3.3.2 (Agilent). Isocratic elution by a mixture of MeOH p.a. (72 %) and H2O-HPLC Mili-Q grade (28 %) as a mobile phase was used for the determination of capacity factor k. Isocratic elution by a mixture of MeOH p.a. (72 %) and acetate-buffered saline (pH 7.4 and pH 6.5) (28 %) as a mobile phase was used for the determination of distribution coefficients expressed as D7.4 and D6.5. The total flow of the column was 1.0 mL min^-1, the injection volume was 20 μL, the column temperature was 40 °C, and the sample temperature was 10 °C. The detection wavelength of 210 nm was chosen. A KI methanolic solution was used to determine the dead times (tD). Retention times (tR) were measured in minutes. The capacity factors k were calculated according to the formula k = (tR–tD)/tD, where tR is the retention time of the solute, and tD is the dead time obtained using an unretained analyte. The distribution coefficients DpH were calculated according to the formula DpH = (tR–tD)/tD. Each experiment was repeated three times.
The capacity factor and distribution coefficients were measured by RP-HPLC on a C18 column with methanol as an organic modifier of the mobile phase. In addition to the experimental lipophilicities, predicted log P values were also calculated using ACD/Percepta, see Table 1. […] The values of σ(Ar) are found in a wide range from 0.01 to 1.36, so the compounds contain substituents with both electron-donating and slightly electron-withdrawing properties.

VRE 725B = assay: Antibacterial screening, broth microdilution MIC; format: cell-based, vancomycin-resistant E. faecalis; conditions: Enterococcus, vanA isolate, 24 h at 37 °C, read-out: MIC VRE 725B
VRE 342B = assay: Antibacterial screening, broth microdilution MIC; format: cell-based, vancomycin-resistant E. faecalis; conditions: Enterococcus, vanA isolate, 24 h at 37 °C, read-out: MIC VRE 342B
[2] = tested on: Enterococcus faecalis ATCC 29212; assay: Antibacterial screening, broth microdilution MIC; format: cell-based; conditions: read-out: MIC E. faecalis
[3] = tested on: Mycobacterium kansasii DSM 44162; assay: Antimycobacterial screening, broth dilution MIC; format: cell-based; conditions: DSM44162, 336 h, read-out: MIC M. kansasii
[4] = tested on: Mycobacterium smegmatis ATCC 700084; assay: Antimycobacterial screening, broth dilution MIC; format: cell-based; conditions: Mycolicibacterium smegmatis, ATCC700084, 72 h, read-out: MIC M. smegmatis
MRSA SA 630 = assay: Antibacterial screening, broth microdilution MIC; format: cell-based, methicillin-resistant S. aureus; conditions: Staphylococcus aureus, read-out: MIC MRSA SA 630
S. aureus ATCC 29213 = assay: Antibacterial screening, broth microdilution MIC; format: cell-based; conditions: Staphylococcus aureus, read-out: MIC S. aureus
MRSA 63718 = assay: Antibacterial screening, broth microdilution MIC; format: cell-based, methicillin-resistant S. aureus; conditions: Staphylococcus aureus, read-out: MIC MRSA 63718
[5] = tested on: Mycobacterium tuberculosis ATCC 25177/H37Ra; assay: Antimycobacterial screening, broth dilution MIC (Alamar blue); format: cell-based; conditions: 336 h, H37Ra, 14 days at 37 °C, Alamar blue, read-out: MIC M. tuberculosis
Procedure: The evaluation of in vitro antimycobacterial activity of the compounds was performed against Mycobacterium tuberculosis ATCC 25177/H37Ra, Mycobacterium kansasii DSM 44162 and Mycobacterium smegmatis ATCC 700084.
The broth dilution micro-method in Middlebrook 7H9 medium (Difco, Lawrence, KS, USA) supplemented with ADC Enrichment (Difco) was used to determine the minimum inhibitory concentration (MIC) as previously described. […] The final concentrations of the evaluated compounds, ranging from 256 to 0.125 μg mL^-1, were obtained by twofold serial dilution of the stock solution in a microtiter plate with a sterile medium. Bacterial inocula were prepared by transferring colonies from culture to sterile water. The plate was inoculated by tested microorganisms. The final concentration of bacterial cells was 1.5×10^6 for M. tuberculosis and 10^5 cells in a microtiter plate for other mycobacteria. Isoniazid and rifampicin (Sigma) were used as reference antimycobacterial drugs. Drug-free controls, sterility controls, and controls consisting of medium and DMSO alone were included. The plates were incubated for a defined time at an appropriate temperature (3 days at 37 °C for M. smegmatis, and 14 days at 37 °C for M. tuberculosis and M. kansasii). […] The MICs against M. tuberculosis were evaluated by Alamar blue (Oxoid). After incubation, 10 % of Alamar blue was added to each well, and the plate was incubated for 24 h. The MIC values were assessed as the lowest concentration of the tested compounds, which prevented changing blue resazurin to pink resorufin. The experiments were repeated three times. The minimum inhibitory concentrations (MICs) were defined as the lowest concentration of the compound at which no visible bacterial growth was observed. The MIC value is routinely and widely used in bacterial assays and is a standard detection limit according to the CLSI [60].

MRSA SA 3202 = assay: Antibacterial screening, broth microdilution MIC; format: cell-based, methicillin-resistant S. aureus; conditions: Staphylococcus aureus, read-out: MIC MRSA SA 3202
VRE 368 = assay: Antibacterial screening, broth microdilution MIC; format: cell-based, vancomycin-resistant E. faecalis; conditions: Enterococcus, vanA isolate, 24 h at 37 °C, read-out: MIC VRE 368
E. coli ATCC 25922 = assay: Antibacterial screening, broth microdilution MIC; format: cell-based; conditions: Escherichia coli, ATCC25922; ATCC 25922, 24 h at 37 °C
[6] = ATCC29212, ATCC 29212, 24 h at 37 °C
[7] = clinical isolate, 24 h at 37 °C
[8] = ATCC29213, ATCC 29213, 24 h at 37 °C

SMILES | log D6.5 [1] | log D7.4 [1] | log k (logarithm of the capacity factor) [1] | MIC (VRE 725B) | MIC (VRE 342B) | MIC [2, 6] | MIC ([3]; DSM 44162, 14 days at 37 °C) | MIC ([4]; ATCC 700084, 3 days at 37 °C) | MIC (MRSA 63718; [7]) | MIC [5] | MIC (VRE 368) | MIC (E. coli ATCC 25922) | MIC (MRSA SA 630; [7]) | MIC (S. aureus ATCC 29213; [8]) | MIC (MRSA SA 3202; [7]) | MIC [3] | also measured
Cc1cccc(C)c1NC(=O)c1c(O)ccc2ccccc12 [Compound 12, N-(2,6-Dimethylphenyl)-2-hydroxynaphthalene-1-carboxamide] | 0.0838 | 0.0923 | 0.0785 | 879 µM (≈ 256 µg/mL) | 879 µM (≈ 256 µg/mL) | 879 µM (≈ 256 µg/mL) | 879 µM (≈ 256 µg/mL) | 879 µM (≈ 256 µg/mL) | 879 µM (≈ 256 µg/mL) | 439 µM (≈ 128 µg/mL) | 879 µM (≈ 256 µg/mL) | 879 µM (≈ 256 µg/mL) | – | – | – | – | MIC (MRSA SA 630; 24 h): 439 µM (≈ 128 µg/mL); MIC (S. aureus ATCC 29213; ATCC29213, 24 h): 439 µM (≈ 128 µg/mL); MIC (MRSA SA 3202; 24 h): 439 µM (≈ 128 µg/mL)
Cc1cc(C)c(NC(=O)c2c(O)ccc3ccccc23)c(C)c1 [Compound 14, 2-Hydroxy-N-(2,4,6-trimethylphenyl)naphthalene-1-carboxamide] | 0.2629 | 0.2691 | 0.2539 | 838 µM (≈ 256 µg/mL) | 838 µM (≈ 256 µg/mL) | 838 µM (≈ 256 µg/mL) | 838 µM (≈ 256 µg/mL) | 210 µM (≈ 64.1 µg/mL) | 838 µM (≈ 256 µg/mL) | 210 µM (≈ 64.1 µg/mL) | 838 µM (≈ 256 µg/mL) | 838 µM (≈ 256 µg/mL) | 838 µM (≈ 256 µg/mL) | 838 µM (≈ 256 µg/mL) | 419 µM (≈ 128 µg/mL) | – | –
COc1ccc(C)cc1NC(=O)c1c(O)ccc2ccccc12 [Compound 15, 2-Hydroxy-N-(2-methoxy-5-methylphenyl)naphthalene-1-carboxamide] | 0.4974 | 0.5012 | 0.4932 | 833 µM (≈ 256 µg/mL) | 833 µM (≈ 256 µg/mL) | 833 µM (≈ 256 µg/mL) | – | 833 µM (≈ 256 µg/mL) | 833 µM (≈ 256 µg/mL) | 416 µM (≈ 128 µg/mL) | 833 µM (≈ 256 µg/mL) | 833 µM (≈ 256 µg/mL) | 833 µM (≈ 256 µg/mL) | 833 µM (≈ 256 µg/mL) | 833 µM (≈ 256 µg/mL) | 833 µM (≈ 256 µg/mL) | –
COc1cccc(C)c1NC(=O)c1c(O)ccc2ccccc12 [Compound 16, 2-Hydroxy-N-(2-methoxy-6-methylphenyl)naphthalene-1-carboxamide] | 0.0284 | 0.0382 | 0.0124 | 833 µM (≈ 256 µg/mL) | 208 µM (≈ 63.9 µg/mL) | – | – | – | 833 µM (≈ 256 µg/mL) | 416 µM (≈ 128 µg/mL) | 208 µM (≈ 63.9 µg/mL) | 833 µM (≈ 256 µg/mL) | 833 µM (≈ 256 µg/mL) | 833 µM (≈ 256 µg/mL) | 833 µM (≈ 256 µg/mL) | 833 µM (≈ 256 µg/mL) | MIC ([2]; ATCC29212, 24 h): 416 µM (≈ 128 µg/mL); MIC [4]: 416 µM (≈ 128 µg/mL)
COc1ccc(C)c(NC(=O)c2c(O)ccc3ccccc23)c1 [Compound 17, 2-Hydroxy-N-(5-methoxy-2-methylphenyl)naphthalene-1-carboxamide] | 0.1047 | 0.1113 | 0.0892 | 833 µM (≈ 256 µg/mL) | 833 µM (≈ 256 µg/mL) | 833 µM (≈ 256 µg/mL) | – | – | – | 416 µM (≈ 128 µg/mL) | 833 µM (≈ 256 µg/mL) | 833 µM (≈ 256 µg/mL) | 208 µM (≈ 63.9 µg/mL) | 104 µM (≈ 32 µg/mL) | 208 µM (≈ 63.9 µg/mL) | 833 µM (≈ 256 µg/mL) | MIC [4]: 416 µM (≈ 128 µg/mL); MIC (MRSA 63718; 24 h): 416 µM (≈ 128 µg/mL)
COc1ccc(Cl)c(NC(=O)c2c(O)ccc3ccccc23)c1 [Compound 18, N-(2-Chloro-5-methoxyphenyl)-2-hydroxynaphthalene-1-carboxamide] | 0.4607 | 0.4593 | 0.46 and 0.4635 | 781 µM (≈ 256 µg/mL) | 781 µM (≈ 256 µg/mL) | 781 µM (≈ 256 µg/mL) | – | 781 µM (≈ 256 µg/mL) | 195 µM (≈ 63.9 µg/mL) | 391 µM (≈ 128 µg/mL) | 781 µM (≈ 256 µg/mL) | 781 µM (≈ 256 µg/mL) | 48.8 µM (≈ 16 µg/mL) | 48.8 µM (≈ 16 µg/mL) | 97.6 µM (≈ 32 µg/mL) | 391 µM (≈ 128 µg/mL) | –
COc1ccc(Br)cc1NC(=O)c1c(O)ccc2ccccc12 [Compound 19, N-(5-Bromo-2-methoxyphenyl)-2-hydroxynaphthalene-1-carboxamide] | 0.5836 | 0.5835 | 0.5845 | 688 µM (≈ 256 µg/mL) | 688 µM (≈ 256 µg/mL) | 688 µM (≈ 256 µg/mL) | 688 µM (≈ 256 µg/mL) | 688 µM (≈ 256 µg/mL) | 688 µM (≈ 256 µg/mL) | 344 µM (≈ 128 µg/mL) | 688 µM (≈ 256 µg/mL) | 688 µM (≈ 256 µg/mL) | 688 µM (≈ 256 µg/mL) | 688 µM (≈ 256 µg/mL) | 688 µM (≈ 256 µg/mL) | – | –
COc1ccc(C(F)(F)F)cc1NC(=O)c1c(O)ccc2ccccc12 [Compound 20, 2-Hydroxy-N-[2-methoxy-5-(trifluoromethyl)phenyl]naphthalene-1-carboxamide] | 0.5323 | 0.5305 | 0.5335 | 709 µM (≈ 256 µg/mL) | 709 µM (≈ 256 µg/mL) | 709 µM (≈ 256 µg/mL) | 709 µM (≈ 256 µg/mL) | 709 µM (≈ 256 µg/mL) | 709 µM (≈ 256 µg/mL) | 354 µM (≈ 128 µg/mL) | 709 µM (≈ 256 µg/mL) | 709 µM (≈ 256 µg/mL) | 709 µM (≈ 256 µg/mL) | 709 µM (≈ 256 µg/mL) | 709 µM (≈ 256 µg/mL) | – | –
COc1ccc(NC(=O)c2c(O)ccc3ccccc23)cc1C(F)(F)F [Compound 21, 2-Hydroxy-N-[4-methoxy-3-(trifluoromethyl)phenyl]naphthalene-1-carboxamide] | 0.1704 | 0.1745 | 0.16 and 0.1635 | 88.6 µM (≈ 32 µg/mL) | 177 µM (≈ 64 µg/mL) | 88.6 µM (≈ 32 µg/mL) | 709 µM (≈ 256 µg/mL) | 177 µM (≈ 64 µg/mL) | 177 µM (≈ 64 µg/mL) | 354 µM (≈ 128 µg/mL) | 88.6 µM (≈ 32 µg/mL) | 709 µM (≈ 256 µg/mL) | 88.6 µM (≈ 32 µg/mL) | 88.6 µM (≈ 32 µg/mL) | 88.6 µM (≈ 32 µg/mL) | – | –
